Literature values, collected in patent publication US10328076B2, “Pharmaceutical composition comprising a triazole antifungal agent and method for preparation thereof” (PHARMATHEN S.A., priority 2014, dated 2019).
Like-named read-outs stand apart in the source and are kept apart here.

- Solubility (in acetone): freely soluble
- Solubility (in dichlorometane): freely soluble
- Solubility (in water): very slightly soluble
Structure (SMILES): C[C@@H](c1ncncc1F)[C@](O)(Cn1cncn1)c1ccc(F)cc1F [Voriconazole, (2R,3S)-2-(2,4-difluorophenyl)-3-(5-fluoropyrimidin-4-yl)-1-(1H-1,2,4-triazol-1-yl)butan-2-ol]
